According to patent US11691949B2, “Quinoline sulfonamide compounds and their use as antibacterial agents” (OTAGO INNOVATION LIMITED, priority 2017, dated 2023):
≈ marks a conversion by molar mass, not a printed value. Where a name gives a salt, the structure may show the parent alone. Read-outs that look alike come from different tables or passages of the source.

Columns and labels:
Assay type in all cases: cell-based
S. aureus ATCC 6538 [1] = assay: MBC by Miles-Misra drop-plate method, S. aureus; conditions: Staphylococcus aureus
Experimental: (§1) Antibacterial susceptibility testing was performed in triplicate (biological) by measuring minimum inhibitory concentrations (MICs) by broth microdilution in 96-well flat bottom microtiter plates (ThermoFisher Scientific, New Zealand). S. uberis ATCC 19436, S. aureus ATCC 6538, or E. coli ATCC 10596 cells grown overnight were diluted to an OD600 of approximately 0.025, so that the final concentration of cells in the MIC assay was approximately 5×10^5 cfu/mL in media as follows: S. uberis; Todd Hewitt Broth (THB), S. aureus; Tryptic Soy Broth (TSB) and Cation Adjusted Muller Hinton Broth (CAMHB), and E. coli; Lysogeny Borth (LB) and CAMHB, before being dispensed into microtiter wells. As required additional sterile Zinc Sulphate (Heptahydrate) was supplemented into the media, so the final concentration was 50 μM. Test compounds were added to starting wells and two-fold serial dilutions were undertaken to generate a range of inhibitor concentrations at a final volume of 200 μl. Media and test compound-free (untreated) controls were included in each microtiter plate in triplicate. After 24 h incubation at 37° C. and 200 rpm, the OD600 of wells were read using a Varioskan Flash plate reader (ThermoFisher Scientific, New Zealand). The MIC was reported as the lowest concentration of the test compound for which no growth occurred, as determined by OD600 readings. The minimum bactericidal concentration (MBC) was determined using the Miles-Misra drop-plate method to measure the viability of cells in response to test compound challenge.

E. coli ATCC 10536 = assay: MBC by Miles-Misra drop-plate method, E. coli; conditions: Escherichia coli
Experimental: as §1

E. coli ATCC 10596 = assay: MIC by broth microdilution, E. coli; conditions: Escherichia coli
Method in brief: (§2)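 Overnight cultures diluted to ~5×10^5 cfu/mL final; S. aureus in TSB and CAMHB, E. coli in LB and CAMHB, zinc sulphate to 50 μM final as required; two-fold serial dilutions. MIC = lowest concentration with no growth by OD600 after 24 h, 37° C, 200 rpm. MBC by Miles-Misra drop-plate viability count.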

S. uberis ATCC 19436 [2] = assay: MIC by broth microdilution, S. uberis; conditions: Streptococcus uberis
Method in brief: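 Streptococcus uberis ATCC 19436 was tested in Todd Hewitt Broth by broth microdilution in 96-well flat bottom plates, in biological triplicate. Overnight cells were diluted to OD600 of approximately 0.025, giving about 5×10^5 cfu/mL in the wells. Compounds were serially diluted two-fold to 200 μl, incubated 24 h at 37° C. and 200 rpm, and the MIC was taken from OD600.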

S. uberis ATCC 19436 [3] = assay: MBC by Miles-Misra drop-plate method, S. uberis; conditions: Streptococcus uberis
Experimental: as §1

S. aureus ATCC 6538 [4] = assay: MIC by broth microdilution, S. aureus; conditions: Staphylococcus aureus
Method in brief: as §2

[5] = ATCC6538, read-out: S. aureus ATCC 6538 MBC, No Zinc
[6] = ATCC6538, read-out: S. aureus ATCC 6538 MBC, Zinc (50 μM)
[7] = ATCC10536, read-out: E. coli ATCC 10536 MBC, No Zinc
[8] = ATCC10536, read-out: E. coli ATCC 10536 MBC, Zinc (50 μM)
[9] = ATCC 10536 / ATCC 10596, No Zinc, read-out: E. coli ATCC 10536 MIC
[10] = ATCC 10536 / ATCC 10596, Zinc (50 μM), read-out: E. coli ATCC 10536 MIC
[11] = ATCC19436, No Zinc, read-out: S. uberis ATCC 19436 MIC
[12] = ATCC19436, Zinc (50 μM), read-out: S. uberis ATCC 19436 MIC
[13] = ATCC19436, read-out: S. uberis ATCC 19436 MBC, No Zinc
[14] = ATCC19436, read-out: S. uberis ATCC 19436 MBC, Zinc (50 μM)
[15] = ATCC6538, No Zinc, read-out: S. aureus ATCC 6538 MIC
[16] = ATCC6538, Zinc (50 μM), read-out: S. aureus ATCC 6538 MIC
[17] = ATCC6538, No Zinc, read-out: S. aureus ATCC 6538 MBC
[18] = ATCC6538, Zinc (50 μM), read-out: S. aureus ATCC 6538 MBC
[19] = ATCC10536, No Zinc, read-out: E. coli ATCC 10536 MBC
[20] = ATCC10536, Zinc (50 μM), read-out: E. coli ATCC 10536 MBC
[21] = ATCC19436, No Zinc, read-out: S. uberis ATCC 19436 MBC
[22] = ATCC19436, Zinc (50 μM), read-out: S. uberis ATCC 19436 MBC

Row | SMILES | MBC (S. aureus ATCC 6538 [1]; [5]) [µg/mL] | MBC (S. aureus ATCC 6538 [1]; [6]) [µg/mL] | MBC (E. coli ATCC 10536; [7]) [µg/mL] | MBC (E. coli ATCC 10536; [8]) [µg/mL] | MIC (E. coli ATCC 10596; [9]) [µg/mL] | MIC (E. coli ATCC 10596; [10]) [µg/mL] | MIC (S. uberis ATCC 19436 [2]; [11]) [µg/mL] | MIC (S. uberis ATCC 19436 [2]; [12]) [µg/mL] | MBC (S. uberis ATCC 19436 [3]; [13]) [µg/mL] | MBC (S. uberis ATCC 19436 [3]; [14]) [µg/mL] | MIC (S. aureus ATCC 6538 [4]; [15]) [µg/mL] | MIC (S. aureus ATCC 6538 [4]; [16]) [µg/mL] | MBC (S. aureus ATCC 6538 [1]; [17]) [µg/mL] | MBC (S. aureus ATCC 6538 [1]; [18]) [µg/mL] | MBC (E. coli ATCC 10536; [19]) [µg/mL] | MBC (E. coli ATCC 10536; [20]) [µg/mL] | MBC (S. uberis ATCC 19436 [3]; [21]) [µg/mL] | MBC (S. uberis ATCC 19436 [3]; [22]) [µg/mL] | other results
1 | O=C(N/N=C/c1ccc2cccc(NS(=O)(=O)c3ccc(C(F)(F)F)cc3)c2n1)C1CCCNC1 (mixture of isomers) [ZDR124, (E/Z)—N-(2-((2-(Piperidine-3-carbonyl)hydrazineylidene)methyl)quinolin-8-yl)-4-(trifluoromethyl)benzenesulfonamide trifluoroacetate] | > 256 | > 256 | 128 | 32 | 128 | 32 | 32 | 16 | 16 | 16 | 16 | 16 |  |  |  |  |  |  | 
2 | CN(C)Cc1ccc2cccc(NS(=O)(=O)c3ccc(C(F)(F)F)cc3)c2n1.Cl [ZDR022-HCl, N-(2-((Dimethylamino)methyl)quinolin-8-yl)-4-(trifluoromethyl)-benzenesulfonamide HCl] |  |  |  |  | > 256 | > 256 | 256 | 0.125 |  |  | 64 | 4 | 128 | 256 | > 256 | > 256 | > 256 | 0.125 | 
3 | CN(C)CCCNCc1ccc2cccc(NS(=O)(=O)c3ccc(C(F)(F)F)cc3)c2n1 [ZDR090, N-(2-(((3-(Dimethylamino)propyl)amino)methyl)quinolin-8-yl)-4-(trifluoromethyl)benzenesulfonamide di-trifluoroacetate] | 16 (≈ 34.3 µM) | 32 (≈ 68.6 µM) | 16 (≈ 34.3 µM) | 16 (≈ 34.3 µM) |  |  |  |  | 8 (≈ 17.1 µM) | 0.5 (≈ 1.07 µM) |  |  |  |  |  |  |  |  | MIC (E. coli ATCC 10596; ATCC 10536 / ATCC 10596, read-out: E. coli ATCC 10536 MIC, No Zinc): 16 µg/mL (≈ 34.3 µM); MIC (E. coli ATCC 10596; ATCC 10536 / ATCC 10596, read-out: E. coli ATCC 10536 MIC, Zinc (50 μM)): 16 µg/mL (≈ 34.3 µM); MIC (S. uberis ATCC 19436 [2]; ATCC19436, read-out: S. uberis ATCC 19436 MIC, No Zinc): 4 µg/mL (≈ 8.57 µM); MIC (S. uberis ATCC 19436 [2]; ATCC19436, read-out: S. uberis ATCC 19436 MIC, Zinc (50 μM)): 0.5 µg/mL (≈ 1.07 µM); MIC (S. aureus ATCC 6538 [4]; ATCC6538, read-out: S. aureus ATCC 6538 MIC, No Zinc): 16 µg/mL (≈ 34.3 µM); MIC (S. aureus ATCC 6538 [4]; ATCC6538, read-out: S. aureus ATCC 6538 MIC, Zinc (50 μM)): 16 µg/mL (≈ 34.3 µM)
4 | O=S(=O)(Nc1cccc2ccc(CNCCCO)nc12)c1ccc(C(F)(F)F)cc1 [ZDR091, N-(2-(((3-Hydroxypropyl)amino)methyl)quinolin-8-yl)-4-(trifluoromethyl)benzenesulfonamide] |  |  |  |  | 256 (≈ 583 µM) | 256 (≈ 583 µM) | 32 (≈ 72.8 µM) | 0.125 (≈ 0.284 µM) |  |  | 64 (≈ 146 µM) | 32 (≈ 72.8 µM) | > 256 | 128 (≈ 291 µM) | 256 (≈ 583 µM) | 128 (≈ 291 µM) | 16 (≈ 36.4 µM) | 0.5 (≈ 1.14 µM) | 
5 | O=S(=O)(Nc1cccc2ccc(CNC(CO)CO)nc12)c1ccc(C(F)(F)F)cc1 [ZDR092, N-(2-(((1,3-Dihydroxypropan-2-yl)amino)methyl)quinolin-8-yl)-4-(trifluoromethyl)benzenesulfonamide] |  |  |  |  | > 256 | > 256 | 64 (≈ 141 µM) | 16 (≈ 35.1 µM) |  |  | 32 (≈ 70.3 µM) | 32 (≈ 70.3 µM) | 256 (≈ 562 µM) | 32 (≈ 70.3 µM) | 256 (≈ 562 µM) | > 256 | 64 (≈ 141 µM) | 8 (≈ 17.6 µM) | 
